These results are taken from patent US20220213433A1, “Three-Dimensional Cross-Linked Scaffolds of Cord Blood Plasma and Their Use” (SANFORD HEALTH, priority 2019, published 2022).

Entries after “also recorded” stand apart in the source; their conditions may differ.

Series [1] in a line: time to achieve matrix cross-linking of cord blood plasma. It is filed as physicochemical, human. As to the method:
(§1) FIG. 2(a-b). Chemical characterization of cord blood plasma 3D culture model referred as InvitroWOMB (iWOMB).
(§2) Referring to FIG. 2, cross-linking time was assessed by measuring the time necessary to achieve matrix cross-linking using three relevant cross-linkers of the blood coagulation process including thrombin (0-5 mg/ml) and CaCl2 (0-10 mg/ml). The stabilization effects of preventing fibrin degradation and stability improvement in the scaffold was assessed by surveying an antifibrinolytic agent such as tranexamic acid (0-5 mg/ml). The stability of the scaffold was studied by measuring each scaffold weight at day 0 and again measuring scaffold weight at the conclusion of a 3 week time period.

The nature of series [2]: scaffold stability: scaffold weight at day 0 and after 3 weeks. It is filed as physicochemical, human. The conditions noted are these: tranexamic acid in the range of 5 mg/ml (tested 0-5 mg/ml); 3 week period. The protocol:
as §1, §2

For a further series, the system named is control hu-MSC. As to the kind of experiment: hu-MSC growth assay with metformin, live cells counted by Trypan blue. It is filed as cell-based, human. The source says:
(§3) FIG. 9(a-d). Precision capabilities. (a) Using a custom human antibody array we measured relative expression of cytokines and growth factors in cord plasma for scaffolds from subjects with Type 1 (T1D), Type 2 (T2D) and gestational diabetes (GDM). Bar graphs represent relative expression by densitometry compared to negative control (membrane background). (b) Hu-MSC from control, T1D, T2D and GDM donors (n=2-3/group) were uniformly plated (50K live cells/well) in stem cell media to collagen-coated, 24-well plates. Trypan blue was used to count live cells every 24 hours and growth was measured and compared. Bar graphs represent fold change from baseline to 72 hours; *p<0.05 by one-way ANOVA with Dunnett post-test, (c) Control hu-MSCs were treated with metformin at increasing doses (0, 25, 50 and 100 μM) and growth was followed as previously described. […] Bar graphs represent the number of cells/well remaining at 72 hours after initial plating of 20K cells/well.
(§4) To determine whether iWOMB is a useful tool for precision-based assays, we used umbilical cord plasma and hu-MSC from control and diabetic pregnancy to identify diabetes-related differences in proteins in the DME and/or programmed cell fate. […] Using our customized antibody array as detailed above (FIG. 8), we compared relative expression of cytokines and growth factors in cord plasma protein. Just as fibrinogen levels are higher in cord plasma from diabetic pregnancies, so are other factors. Specifically, umbilical cord plasma cytokines (IL-6, IL-10), insulin like growth factor −1 (IGF-1) and hepatocyte growth factor (HGF) from Type 1 diabetic pregnancy (TID) are higher than in plasma from Type 2 (T2D) and gestational diabetes (GDM) (FIG. 9a). […] Every 24 hours cells were detached using 0.25% trypsin/EDTA and live cells were counted using Trypan blue staining and a hemocytometer. Live cells were recorded at each time point for […]. […] Every 24 hours cells were detached using 0.25% trypsin/EDTA and live cells were counted using Trypan blue and a hemocytometer. Live cells were recorded at each time point for 72 hours. […]

The subject of a further series is GDM-exposed hu-MSC. The series is described as above. The conditions noted are these: 25 μM metformin; 20K cells/well; 72 hour cell counts. The format is cell-based, human.
Text: as §3, §4

Turning to `[Ca+2].[Cl-].[Cl-]` [CaCl2, calcium chloride], the cross-linking time entry in series [1] (CaCl2 1.25 to 5 mg/ml (tested 0-10 mg/ml)) is on record as “fastest crosslinking”.

For `NC[C@H]1CC[C@H](C(=O)O)CC1` [Tranexamic acid, tranexamic acid], in series [2], the “scaffold stability (prevention of fibrin degradation)” value was “best improvement in scaffold stability”.

As to thrombin, the cross-linking time entry in series [1] (thrombin 0.5 to 5 mg/ml (tested 0-5 mg/ml)) was “fastest crosslinking”.

Regarding `CN(C)C(=N)N=C(N)N` [metformin], in the series with control hu-MSC (25 μM metformin (level reported in umbilical cord blood), 20K cells/well, 72 hours), the “growth of control hu-MSC” value was “does not impair growth”. For the same molecule, the “hu-MSC cell growth (number of live cells over time)” value in the series with control hu-MSC (normal/control hu-MSC, metformin 0, 25, 50, 100 uM, live cells counted every 24 h for 72 hours) was “impairs hu-MSC growth in a dose dependent manner; also recorded: dose-dependent decline in cell growth”. The “growth of GDM exposed hu-MSC” value with GDM-exposed hu-MSC is on record as “increased growth; also recorded: improves”.
